From patent publication US20100120063A1, “GPCR Arrestin Assays” (DISCOVERX CORPORATION, priority 2008, published 2010)

Experiments:
Format in all cases: cell-based
CCKAR-PK [1] = molecular target: T1, CCKAR-PK (Homo sapiens, UniProt P32238); experiment: Arrestin-EA binding to CCKAR-PK in HEK cell line (FIG. 10B, 10D)
T1 construct: PK (beta-galactosidase ED); expressed in transfected cells; host or cells: HEK
T1 sequence (P32238 1-428): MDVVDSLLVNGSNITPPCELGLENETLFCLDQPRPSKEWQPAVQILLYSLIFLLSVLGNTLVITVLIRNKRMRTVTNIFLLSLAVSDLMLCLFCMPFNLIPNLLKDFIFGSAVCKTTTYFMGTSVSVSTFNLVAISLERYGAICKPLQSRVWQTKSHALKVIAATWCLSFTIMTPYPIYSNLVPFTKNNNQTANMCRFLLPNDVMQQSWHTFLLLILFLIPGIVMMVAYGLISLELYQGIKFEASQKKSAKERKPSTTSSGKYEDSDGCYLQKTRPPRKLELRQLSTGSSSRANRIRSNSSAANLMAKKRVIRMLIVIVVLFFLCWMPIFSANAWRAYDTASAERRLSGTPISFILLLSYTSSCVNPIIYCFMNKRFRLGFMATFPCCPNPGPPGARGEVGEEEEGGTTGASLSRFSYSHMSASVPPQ
Description: (§2) For all assays, 10,000 cells per well were seeded in 20 μL media and incubated overnight in 1% Fetal Bovine Serum and appropriate basal media (F-12 or DMEM). For agonist assays, 5 μL compound was added to cells and incubated at Room Temp. For antagonist assays, 5 μL 5× compound was added to cells and incubated at 37° C./5% CO2 for 10 minutes, after which 5 μL 6× agonist was added and incubated for 60 minutes at 37° C. Arrestin-EA complex formation with the GPCR was detected with 50% (v/v) of PathHunter Detection Reagent (Dx 93-0001, PathHunter reagents are available from DiscoveRx, Corp., Fremont, Calif.) (Lysis buffer active ingredient 2% CHAPS, Emerald II and Galacton star are from Applied Biosystems.) Data was read on Packard Victor 2 or PerkinElmer ViewLux readers and analyzed using GraphPad Prism 4.

CCKAR-PK [2] = molecular target: T1, CCKAR-PK; experiment: Calcium concentration in HEK cell line expressing CCKAR-PK and arrestin-EA (FIG. 10A, 10C)
OPRM1-PK = molecular target: T2, OPRM1-PK (Homo sapiens, UniProt P35372); experiment: Arrestin-EA EFC agonist assay, U2OS cells expressing OPRM1-PK only
T2 construct: PK (beta-galactosidase ED); expressed in transfected cells; host or cells: U2OS
T2 sequence (P35372 whole entry): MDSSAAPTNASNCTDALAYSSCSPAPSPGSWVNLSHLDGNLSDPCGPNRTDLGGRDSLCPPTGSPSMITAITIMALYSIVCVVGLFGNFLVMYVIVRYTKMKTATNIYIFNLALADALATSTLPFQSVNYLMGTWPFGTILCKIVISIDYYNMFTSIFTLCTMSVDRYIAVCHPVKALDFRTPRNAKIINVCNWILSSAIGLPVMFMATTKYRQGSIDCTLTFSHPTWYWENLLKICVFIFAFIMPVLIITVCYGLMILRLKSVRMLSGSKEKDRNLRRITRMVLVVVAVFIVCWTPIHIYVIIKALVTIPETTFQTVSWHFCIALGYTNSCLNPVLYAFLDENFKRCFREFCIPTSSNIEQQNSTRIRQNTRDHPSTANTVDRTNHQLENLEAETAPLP
Description: (§3) For all assays, 10,000 cells per well were seeded in 20 μL media and incubated overnight in 1% Fetal Bovine Serum and appropriate basal media (F-12 or DMEM). For agonist assays, 5 μL compound was added to cells and incubated at Room Temp. […] Arrestin-EA complex formation with the GPCR was detected with 50% (v/v) of PathHunter Detection Reagent (Dx 93-0001, PathHunter reagents are available from DiscoveRx, Corp., Fremont, Calif.) (Lysis buffer active ingredient 2% CHAPS, Emerald II and Galacton star are from Applied Biosystems.) Data was read on Packard Victor 2 or PerkinElmer ViewLux readers and analyzed using GraphPad Prism 4.

OPRD1-PK = molecular target: T3, OPRD1-PK (Homo sapiens, UniProt P41143); experiment: Arrestin-EA EFC agonist assay, CHO cells expressing OPRD1-PK (FIG. 12A)
T3 construct: cloning junction ISFEL + gly-ser linker […]; PK1 (mutated ED, H to R); expressed in transfected cells; host or cells: CHO
Description: as §3

OPRD1-PK and OPRM1 = molecular target: T4, OPRD1-PK and OPRM1 (Homo sapiens, UniProt P35372); experiment: Transactivation assay, CHO cells co-expressing OPRD1-PK and OPRM1 (FIG. 12C)
T4 construct: expressed in transfected cells; host or cells: CHO
T4 sequence (P35372 whole entry, species assumed): as the sequence (P35372 whole entry) above
Description: as §3

CHRM2 [3] = molecular target: T5, CHRM2 (Homo sapiens, UniProt P08172); experiment: Arrestin-EA / GPCR-PK β-galactosidase EFC screening assay, CHRM2 fused to mutated ED (PK1)
T5 construct: gly-ser flexible linker […]; expressed in transfected cells; host or cells: CHO
T5 sequence (P08172 1-466): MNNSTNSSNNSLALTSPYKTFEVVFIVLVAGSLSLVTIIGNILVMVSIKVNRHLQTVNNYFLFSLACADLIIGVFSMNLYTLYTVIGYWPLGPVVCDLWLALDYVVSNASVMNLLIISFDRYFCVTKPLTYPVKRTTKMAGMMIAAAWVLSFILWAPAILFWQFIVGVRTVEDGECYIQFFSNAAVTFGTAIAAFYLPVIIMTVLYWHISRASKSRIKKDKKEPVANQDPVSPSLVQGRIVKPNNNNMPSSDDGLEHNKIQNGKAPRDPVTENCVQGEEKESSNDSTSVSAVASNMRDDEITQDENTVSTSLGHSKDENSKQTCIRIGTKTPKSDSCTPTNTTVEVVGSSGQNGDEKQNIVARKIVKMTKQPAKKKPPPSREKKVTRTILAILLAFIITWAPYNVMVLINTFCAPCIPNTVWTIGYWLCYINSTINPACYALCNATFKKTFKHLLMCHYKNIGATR
Description: (§1) To perform the screening assay, 20 μl of cells in complete media or serum-free media (OPTI-MEM® Invitrogen Cat. #31985-070) were plated at 5, 10 and 15×10^3 cells per well in a white 384 well microplate and incubated at 37° C. overnight. Cells are allowed to adhere and grown overnight. Cells may be screened for their response in serum free or complete medium. Serial dilutions are then performed in serum-free medium or buffer for a volume of 25 μl. Depending on the candidate compound, the dilution may occur in the presence of 0.1% BSA or ≦1% final concentration of an organic solvent, e.g., DMSO and methanol. 5 μl of each candidate compound is added per well. The assay mixture is then incubated for 90 min at 37° C. 12.5 μl of the detection reagent is then added. The detection reagent is prepared by combining 1 part Galacton Star Substrate® with 5 parts Emerald II® Solution and 19 parts Path-Hunter Cell Assay Buffer (lysis buffer). The assay mixture is then incubated for 1 h at room temperature. Chemiluminescence is then read at 1.0 sec/well on PMT based instrument or 5-20 sec on an imager.

CHRM2 [4] = molecular target: T5, CHRM2; experiment: Arrestin-EA / GPCR-PK EFC screening assay, CHO Arrestin + CHRM2-PK2 (wild-type ED)
Description: as §1

OPRM1-PK and CCR2 = molecular target: T6, OPRM1-PK and CCR2 (Homo sapiens, UniProt P41597); experiment: Transactivation assay, U2OS cells co-expressing OPRM1-PK and CCR2 (FIG. 13A); conditions: CCR2 coexpressed with OPRM1-PK; FIG. 13 graph A
T6 construct: expressed in transfected cells; host or cells: U2OS
T6 sequence (P41597 whole entry, species assumed): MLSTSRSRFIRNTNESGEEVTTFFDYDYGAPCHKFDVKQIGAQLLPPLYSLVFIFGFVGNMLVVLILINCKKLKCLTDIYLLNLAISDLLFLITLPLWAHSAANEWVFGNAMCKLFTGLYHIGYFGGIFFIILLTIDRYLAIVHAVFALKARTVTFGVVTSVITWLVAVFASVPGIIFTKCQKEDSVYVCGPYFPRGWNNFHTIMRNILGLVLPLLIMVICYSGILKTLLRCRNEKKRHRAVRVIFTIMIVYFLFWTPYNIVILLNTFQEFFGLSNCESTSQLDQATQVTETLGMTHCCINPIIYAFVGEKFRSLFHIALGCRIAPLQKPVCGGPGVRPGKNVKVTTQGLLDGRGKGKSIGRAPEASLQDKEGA
Description: as §3

OPRM1-PK and CCR5 = molecular target: T7, OPRM1-PK and CCR5 (Homo sapiens, UniProt P51681); experiment: Transactivation assay, U2OS cells co-expressing OPRM1-PK and CCR5 (FIG. 13B); conditions: CCR5 coexpressed with OPRM1-PK; FIG. 13 graph B
T7 construct: expressed in transfected cells; host or cells: U2OS
T7 sequence (P51681 whole entry, species assumed): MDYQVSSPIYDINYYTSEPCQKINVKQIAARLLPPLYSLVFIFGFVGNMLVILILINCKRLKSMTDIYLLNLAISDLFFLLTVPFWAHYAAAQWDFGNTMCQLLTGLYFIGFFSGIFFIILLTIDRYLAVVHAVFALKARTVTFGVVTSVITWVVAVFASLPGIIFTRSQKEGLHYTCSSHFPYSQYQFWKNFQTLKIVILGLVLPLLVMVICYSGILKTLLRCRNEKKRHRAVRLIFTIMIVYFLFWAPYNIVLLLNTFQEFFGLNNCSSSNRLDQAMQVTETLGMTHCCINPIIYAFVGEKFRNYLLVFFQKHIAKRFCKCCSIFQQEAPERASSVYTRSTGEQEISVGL
Description: as §2

[5] = curve fit, signal, U2OS OPRM1-PK only
[6] = curve fit, chemiluminescence signal, FIG. 4

With `C[N+](C)(C)CCOC(N)=O` [carbachol] the “effect on the binding of arrestin-EA to CCKAR-PK” value (CCKAR-PK [1]) was “substantially no effect” and the “effect on calcium concentration” value (CCKAR-PK [2]) was “some effect”.
With `C[C@@H](NC(=O)[C@@H](N)Cc1ccc(O)cc1)C(=O)NCC(=O)N(C)[C@@H](Cc1ccccc1)C(=O)NCCO` [DAMAGO, [D-Ala2,N-Me-Phe4,Gly5-ol]-enkephalin] the HILLSLOPE (OPRM1-PK; U2OS OPRM1-PK only) was 0.7069, the “arrestin-EA binding response” value (OPRM1-PK; cells expressing only OPRM1-PK) was “presence of response” and the TOP (OPRM1-PK; [5]) was 10875. The HILLSLOPE (OPRD1-PK; FIG. 12A) was 1.293, the “response” value (OPRD1-PK; cells expressing only OPRD1-PK) was “absence of response” and the BOTTOM (OPRD1-PK; curve fit, signal, FIG. 12A) was 519.8. For the same compound, the TOP (OPRD1-PK; curve fit, signal, FIG. 12A) was 2809, the HILLSLOPE (OPRD1-PK and OPRM1; FIG. 12C) was 1.571 and the “transactivation response” value (OPRD1-PK and OPRM1; cells expressing OPRD1-PK and OPRM1) was “lack of response”. The BOTTOM (OPRD1-PK and OPRM1; curve fit, signal, FIG. 12C) was 20.31, the TOP (OPRD1-PK and OPRM1; curve fit, signal, FIG. 12C) was 201.4 and the “S:B” value (OPRD1-PK and OPRM1; signal to background, FIG. 12C) was “[S:B = 31.9]”.
`O=C1CCCN1CC#CCN1CCCC1` [oxotremorine] was tested, and the “response with PK1” value (CHRM2 [3]; CHRM2, FIG. 4) was “no response”, the “fold response with PK1” value (CHRM2 [3]; CHRM2 fused to PK1, FIG. 1A) was 1.4 fold and the “S:B PK1” value (CHRM2 [3]; signal to background ratio, CHRM2 fused to PK1, FIG. 1A) was 1.6. For the same compound, the EC50 (CHRM2 [4]; FIG. 4) was 6.29 µM, the HILLSLOPE (CHRM2 [4]; FIG. 4) was 1.183 and the “response with PK2” value (CHRM2 [4]; FIG. 4) was “robust response”. For the same compound, the BOTTOM (CHRM2 [4]; [6]) was 335.9, the TOP (CHRM2 [4]; [6]) was 2037 and the “S:B PK2” value (CHRM2 [4]; signal to background ratio, CHRM2 fused to PK2, FIG. 1B) was 6.1.
For CCL3: ligand added to CCR5 cells, the “transactivation response” value (OPRM1-PK and CCR2) was “no response” and the “transactivation response” value (OPRM1-PK and CCR5) was “no response”.
`CC(C)C[C@@H](NC(=O)[C@H](Cc1ccccc1)NC(=O)CNC(=O)[C@@H](C)NC(=O)[C@@H](N)Cc1ccc(O)cc1)C(=O)O` [DADLE] showed an HILLSLOPE (OPRM1-PK; U2OS OPRM1-PK only) of 1.483, a BOTTOM (OPRM1-PK; [5]) of 625.6 and a TOP (OPRM1-PK; [5]) of 17070. For the same compound, the “S:B” value (OPRM1-PK; signal to background, U2OS OPRM1-PK only) was “[S:B = 32.7]”.
